Tested on: CellSensor T-REx NICD CSL-bla HeLa cell line (Notch response element driving beta-lactamase reporter)
Assay: Notch assay (CSL-bla beta-lactamase reporter, DOX-inducible NICD)
Assay type: cell-based
Conditions: Homo sapiens; 10 μM compound; HeLa/T-REx NICD CSL-bla cells, doxycycline-induced, 16-20 hours incubation; blue/green emission ratio
Method: We used the CellSensor T-REx™ NICD CSL-bla HeLa cell line, which was engineered by lentiviral transduction of HeLa cells with a Notch response element driving beta-lactamase reporter gene expression (CSL-bla) along with DOX (doxycycline)-inducible NICD (Notch intracellular domain) constructs. Addition of DOX to these cells allows for regulated NICD transcription factor expression and subsequent beta-lactamase expression.
Specifically, the following protocol was used.
• 1. Plate Cells: 32 μL/well of HeLa/T-REx™ NICD CSL-bla cells at 10^3 cells/well complete medium into 384-well plate. • 2. Prepare 10× compounds in assay medium. • 3. Add 4 μL compounds or 1% DMSO in assay medium to the cells. • 4. Add 4 μL 10× Doxycycline in Assay Medium to the treated wells, and 4 μL Assay Medium to the Untreated and cell free control wells. • 5. Incubate the assay plate in a humidified 37° C./5% CO2 incubator for 16-20 hours. • 6. Preparation of 6× LiveBLAzer™-FRET B/G Substrate (CCF4-AM) Mixture according to the manual and cell loading should be done in the absence of direct strong lighting. • 7. Remove assay plate from the humidified 37° C./5% CO2 incubator. Add 8 μl of 6× Substrate Mixture from […] to each well. Cover the plate to protect it from light and evaporation. Incubate at room temperature for 4 hours. • 8. Reading an Assay Plate using the following filter selections:
• 9. Data analysis: Use the assay plate layout to identify the location of the Cell-free wells. These control wells are used for background subtraction. Determine the average emission from the Cell-free wells at both 460 nm (Average Blue Background) and 530 nm (Average Green Background). Subtract the Average Blue Background (data collected at 460 nm) from all of the blue emission data. Subtract the Average Green background (data collected at 530 nm) from all of the green emission data. Calculate the Blue/Green Emission Ratio for each well, by dividing the background-subtracted blue emission values by the background-subtracted green emission values.

Compound	inhibition at 10 µM
CC(C)CCN1CC2N(C[C@@H](Cc3ccc(O)cc3)C1=O)C(=O)c1sccc1N2C(=O)NCc1ccc2c(c1)OCO2 (stereo partly drawn) [ID-33, (8R)—N-(benzo[d][1,3]dioxol-5-ylmethyl)-8-(4-hydroxybenzyl)-6-isopentyl-7,11-dioxo-4a,5,6,7,8,9-hexahydrothieno[3′,2′:4,5]pyrimido[1,2-a][1,4]diazepine-4(11H)-carboxamide]	68.2%
CC(C)CCN1CC2N(C[C@@H](Cc3ccc(O)cc3)C1=O)C(=O)c1sccc1N2C(=O)NCc1cccc2ccccc12 (stereo partly drawn) [ID-26, (8R)-8-(4-hydroxybenzyl)-6-isopentyl-N-(naphthalen-1-ylmethyl)-7,11-dioxo-4a,5,6,7,8,9-hexahydrothieno[3′,2′:4,5]pyrimido[1,2-a][1,4]diazepine-4(11H)-carboxamide]	61.1%
O=C1[C@H](Cc2ccccc2)CN2C(=O)CCN(C(=O)NCCC(c3ccccc3)c3ccccc3)C2CN1CC1CCCCC1 (stereo partly drawn) [ID-07, (7R)-7-benzyl-9-(cyclohexylmethyl)-N-(3,3-diphenylpropyl)-4,8-dioxooctahydropyrimido[1,2-a][1,4]diazepine-1(2H)-carboxamide]	54.7%
CC(C)[C@@H]1CN2C(=O)CCN(C(=O)NCCC(c3ccccc3)c3ccccc3)C2CN(CCc2ccccc2)C1=O (stereo partly drawn) [ID-09, (7R)—N-(3,3-diphenylpropyl)-7-isopropyl-4,8-dioxo-9-phenethyloctahydropyrimido[1,2-a][1,4]diazepine-1(2H)-carboxamide]	54.1%
CC(C)[C@@H]1CN2C(=O)CCN(C(=O)NCCC(c3ccccc3)c3ccccc3)C2CN(Cc2ccc3ccccc3c2)C1=O (stereo partly drawn) [ID-14, (7R)—N-(3,3-diphenylpropyl)-7-isopropyl-9-(naphthalen-2-ylmethyl)-4,8-dioxooctahydropyrimido[1,2-a][1,4]diazepine-1(2H)-carboxamide]	62.4%
CCCCN1CC2N(C[C@@H](Cc3ccccc3)C1=O)C(=O)CCN2C(=O)NCCC(c1ccccc1)c1ccccc1 (stereo partly drawn) [ID-04, (7R)-7-benzyl-9-butyl-N-(3,3-diphenylpropyl)-4,8-dioxooctahydropyrimido[1,2-a][1,4]diazepine-1(2H)-carboxamide]	54.7%
CCCCN1CC2N(C[C@@H](Cc3ccc(O)cc3)C1=O)C(=O)c1sccc1N2C(=O)NCc1ccc(C)cc1 (stereo partly drawn) [ID-36, (8R)-6-butyl-8-(4-hydroxybenzyl)-N-(4-methylbenzyl)-7,11-dioxo-4a,5,6,7,8,9-hexahydrothieno[3′,2′:4,5]pyrimido[1,2-a][1,4]diazepine-4(11H)-carboxamide]	55.9%

Source: patent publication US20250250282A1, “NOVEL SEVEN-MEMBERED RING-FUSED COMPOUNDS” (PRISM Biolab Co., Ltd., priority 2022, published 2025)
